Residues, ends and D or L forms follow the SMILES beside them.
Columns and labels:
[1] = Non-patent Document 10; cited from earlier work
[2] = Usable mediums: solubility and gel formation, conventional art vs palmitoyl-Gly-His; assay type: physicochemical

Solubility in medium ([2]; 50 mM acetate buffer with pH 5, even when heated): insoluble
Solubility in medium ([2]; 50 mM citrate buffer with pH 5, even when heated): insoluble
Gel formation ([2]; ethanol/water mixed solvent having an ethanol concentration of 80% or more): does not form a gel
SMILES: CCCCCCCCCCCCCCCC(=O)NCC(=O)NCC(=O)NCC(=O)N[C@@H](Cc1c[nH]cn1)C(=O)O [palmitoyl-Gly-Gly-Gly-His] (HELM PEPTIDE1{[CCCCCCCCCCCCCCCC(=O)[*:2]].G.G.G.H}$$$$V2.0)
lowest gelation concentration [1]: 0.03 wt %
